{"source": "paper PMC10707934", "about": "“Design and Synthesis of Novel α-Methylchalcone Derivatives, Anti-Cervical Cancer Activity, and Reversal of Drug Resistance in HeLa/DDP Cells” (Molecules, 2023)", "assay_type_in_all_cases": "cell-based, human", "key": {"[1]": {"test_system": "HeLa cells", "assay": "Transwell migration assay, HeLa", "details": "24 h, control 1176", "method": "HeLa (5 × 10^4 cells) was suspended in 200 μL of FBS-free medium. The top chamber contained the vehicle and various concentrations of compound 3k (2.5, 5, and 10 μM), cisplatin (20 μM) and chalcone (20 μM). The lower chamber was filled with 600 μL of medium containing 10% FBS. After incubating at 37 °C for 24 h, the cells on the top side of the Transwell membrane were removed with a cotton tip. Cells were fixed and stained with 4% paraformaldehyde (LEAGENE BIOTECHNOLOGY, Cat:DF0135, Lot:0823A23, Zhongguancun, Haidian District, Beijing, China) and 0.1% crystal violet solutions (Leagene Biotechnology, Cat:DZ0055, Lot:0508A23, Zhongguancun, Haidian District, Beijing, China) for 30 min to fix cells trapped on the perforated side of the membrane."}, "[2]": {"test_system": "α-tubulin, β-tubulin in HeLa cells", "assay": "Immunofluorescence assay of microtubules, HeLa", "details": "24 h, 3k 1, 2, and 4 μM, colchicine and paclitaxel 2.0 μM", "method": "The cells were then fixed by adding 400 μL of 4% paraformaldehyde to each well and incubating for 30 min. 0.1% Triton was added at a volume of 400 μL per well and allowed to incubate for 10 min. Following this, goat serum (10%) was added at 400 μL per well and incubated for 40 min. Primary antibodies (α-tubulin, β-tubulin) were then incubated overnight at a temperature of 4 °C. Subsequently, secondary antibodies (α-mouse, β-rabbit) were incubated for 1.5 h. DAPI staining was performed at 400 μL per well for 5 min, followed by a wash with PBS. Cell climbing tablets were removed and inverted onto slides with sealer. Photographs were captured using a fluorescent inverted microscope."}, "[3]": {"test_system": "α-/β-tubulins in HeLa cells", "assay": "Western blot of polymerized and dissociated α-/β-tubulins, HeLa", "details": "24 h, versus control", "method": "HeLa cells were cultured in 60 mm Petri dishes at a density of 1.0 × 10^6 cells per dish and treated with 0.1% DMSO (vehicle), positive control chalcone (20 μM), and different concentrations of compound 3k (2.5, 5, and 10 μM), respectively. Following a 24 and 48 h incubation period, the cells were harvested via centrifugation and subsequently washed twice with PBS that had been chilled to 0 °C. Next, the cells were homogenized using RIPA lysis buffer (Solarbio, Beijing, China) and supplemented with 1% PMSF (MP Biomedicals, 0754-25G, CAS:329-98-6, Santa Ana, CA, USA) and 1% mixed phosphatase inhibitor (Solarbio, Beijing, China). The resulting lysates were then incubated on ice for 30 min, intermittently vortexed every 5 min, and subsequently centrifuged at 12,000 rpm for 20 min to collect the supernatants.\nSubsequently, the protein concentrations were determined utilizing a BCA Protein Assay Kit (Solarbio, China). An equivalent quantity of the proteins (12 μg) was fractionated via 8–12% sodium dodecyl sulfate–polyacrylamide gel electrophoresis (SDS-PAGE) and transferred onto nitrocellulose membranes (Amersham Biosciences, Amersham, UK). Following this, the membranes were obstructed with 5% nonfat dried milk in TBS containing 1% Tween-20 for a duration of 2 h at ambient temperature and were subjected to overnight incubation with specific primary antibodies (CST, Boston, MA, USA) at 4 °C. Following three washes in TBST, the membranes were subjected to incubation with the suitable HRP-conjugated secondary antibodies at ambient temperature for a duration of 2 h. The blots were subsequently visualized using enhanced chemiluminescence (Biosharp, Shanghai, China) and detected utilizing a PE 0723 imager (ProteinSimple, Silicon Valley, CA, USA). Each experiment was conducted in triplicate at minimum and analyzed employing Image J software (V1.8.0.112). β-actin(ab198991) rabbit mAb, goat anti-rabbit IgG (H + L) HRP—#S0001 (Affinity). Bax (ab289364), Bcl-2 (ab218123), MDR1/ABCB1 (E1Y7B) rabbit mAb #13342 (CST).\nPolymerized and free microtubule proteins were extracted using the methods described in references, respectively. Following drug intervention, the cells were subjected to two washes with preheated microtubule protein buffer MTSB at 37 °C. Subsequently, 70 μL of MTSB was added, and the cells were lysed for 10 min at 37 °C in a constant temperature chamber shielded from light. The cells were then scraped with a spatula and centrifuged at 14,000 r/min for 10 min at room temperature. The resulting supernatant, which represented the free state microtubule protein suspension, was subsequently removed. The remaining precipitate was treated with RIPA lysis solution, followed by lysis on ice for a duration of 30 min. Subsequently, centrifugation was performed at a temperature of 4 °C and a speed of 12,000 revolutions per minute for a duration of 20 min. The resulting supernatant was collected as a suspension of polymerized microtubule protein. The Western blotting procedure was the same as in Section 3.3.4. α-Tubulin (DM1A) Mouse mAb#3873 (CST), β-Tubulin (D2N5G) Rabbit mAb #15115 (CST), CoraLite488-conjugated Goat Anti-Mouse lgG(H+L) (Proteintech); CoraLite488-conjugated Goat Anti-Rabbit lgG(H+L) (Proteintech); β-actin(ab198991) rabbit mAb, Goat Anti-Mouse IgG H&L (HRP) (ab6789); Goat anti-Rabbit IgG (H+L) HRP—#S0001 (Affinity)."}}}
{"smiles": "COc1ccc(/C=C(\\C)C(=O)c2ccc(Cl)c(Cl)c2)cc1OC", "note": "[Compound 3k, (E)-1-(3,4-Dichlorophenyl)-3-(3,4-dimethoxyphenyl)-2-methylprop-2-en-1-one]", "values": [{"measurement": "number of migrated cells", "setting": "[1]; 2.5 μM", "value": 518}, {"measurement": "number of migrated cells", "setting": "[1]; 5 μM", "value": 388}, {"measurement": "number of migrated cells", "setting": "[1]; 10 μM", "value": 166}, {"measurement": "microtubule immunofluorescence (α green, β red)", "setting": "[2]", "value": "green and red fluorescence of the encapsulated cells weakened"}, {"measurement": "expression of dissociated state α and β microtubule proteins", "setting": "[3]; 3k 4 μM, colchicine 2 μM, paclitaxel 2.0 μM", "value": "significant increase"}, {"measurement": "expression of α and β microtubule proteins in the polymerized state", "setting": "[3]; 3k 2 and 4 μM, colchicine and paclitaxel 2.0 μM", "value": "significant decrease"}]}
